In patent US11542266B1, “Substituted piperidines as BTK inhibitors” (HAISCO PHARMACEUTICALS PTE. LTD., priority 2019, dated 2023):

Tests used:
[1] = Pharmacokinetic experiment in rats (i.g. vehicle 0.5% MC); type: in vivo; conditions: Sprague-Dawley (SD), rat, plasma, po, male SD rats; for bioavailability: i.g. 20 mg/kg (0.5% MC) vs i.v. 5 mg/kg; for AUC(0-t): i.g. 20 mg/kg, vehicle 0.5% MC, read-out: AUC0-t
Protocol: (§1) Objective: In this experiment, a single dose of each test compound was administered to SD rats intravenously and intragastrically, the concentrations of the test compound in plasma of rats were measured, and the pharmacokinetic characteristics and bioavailability of the test compound in rats were evaluated.
Experimental animals: Male SD rats, 200-250 g, 6-8 weeks old, 6 rats/test compound. The experimental animals were purchased from CHENGDU DOSSY EXPERIMENTAL ANIMALS CO., LTD.
(§2) Experimental method: On the day of the experiment, 6 SD rats were randomly grouped according to their body weight. The animals were fasted with water available for 12 to 14 hours one day before the administration of a test compound, and were fed 4 hours after the administration.
Sampling: Before and after the administration, 0.1 ml of blood was taken from the orbit of the rats under isoflurane anesthesia, and placed in an EDTAK2 centrifuge tube. Centrifugation was carried out at 5000 rpm at 4° C. for 10 min and the plasma was collected.
Time points for plasma collection in G1 group: 0, 5 m, 15 m, 30 m, 1 h, 2 h, 4 h, 6 h, 8 h, and 24 h.
Time points for plasma collection in G2 group: 0, 15 m, 30 m, 1 h, 2 h, 4 h, 6 h, 8 h, and 24 h.
(§3) Before analysis and detection, all samples were stored at −80° C. The samples were analyzed quantitatively by LC-MS/MS.

[2] = system: TMD-8 cells; assay: Inhibition of cell proliferation, TMD-8 cells (Cell Viability Assay, 72 h); type: cell-based; conditions: Homo sapiens, TMD8
Protocol: (§4) OCI-LY10 and TMD-8 cells, in the culture medium of RPMI1640+10% FBS, were cultured in an incubator at 37° C. under 5% CO2. Cells were plated in a 96-well plate. Specifically, OCI-LY10 cells were at 10000/well, and TMD-8 cells were at 8000/well, with 90 μL/well. These cells were cultured at 37° C. under 5% CO2 overnight. On the next day, 10 μL of the compounds at different concentrations were added to each well. There were 3 replicate wells for each concentration, and the last column, added with DMSO, was used as a vehicle control group. The cultures were continued for 72 hours at 37° C. under 5% CO2. After 72 hours, 50 μL of detection reagent (Cell Viability Assay, Promega, G7573) was added to each well, and the cultures were uniformly mixed for 2 minutes, and incubated at room temperature for 10 minutes. The fluorescence signal value was measured with an Envision2104 plate reader (PerkinElmer). The inhibition rate was calculated using formula (2), wherein RLUcompound was the readout of the drug treated group, RLUcontrol was the average value of the vehicle control group, and RLUblank was the average value of the cell-free wells. The IC50 value was calculated using GraphPad Prism software. IR (%)=(1−(RLUcompound-RLUblank)/(RLUcontrol-RLUblank))*100% formula (2)

[3] = system: OCI-LY10 cells; assay: Inhibition of cell proliferation, OCI-LY10 cells (Cell Viability Assay, 72 h); type: cell-based; conditions: Homo sapiens
Protocol: as §4

[4] = system: Mino cells; assay: Inhibition of cell proliferation, Mino cells (Cell Viability Assay, 72 h); type: cell-based, human; conditions: Homo sapiens
Procedure, shortened: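 RPMI1640 + 10% FBS cultures seeded at 20000/well (SU-DHL-4) or 5000/well (Mino, SU-DHL-6), exposed to compound dilutions in triplicate for 72 h at 37 °C, 5% CO2, DMSO vehicle control. Viability read by luminescent reagent; IC50 from dose-response and Max inhi. % = (1 − T72 treated/T72 vehicle)×100 at top concentration.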

[5] = system: SU-DHL-6 cells; assay: Inhibition of cell proliferation, SU-DHL-6 cells (Cell Viability Assay, 72 h); type: cell-based; conditions: Homo sapiens
Protocol: (§5) SU-DHL-4, Mino, and SU-DHL-6 cells, in the culture medium of RPMI1640+10% FBS, were cultured in an incubator at 37° C. under 5% CO2. Cells were plated in a 96-well plate. Specifically, SU-DHL-4 cells were at 20000/well, Mino and SU-DHL-6 cells were at 5000/well, with 90 μL/well. 10 μL of the compounds at different concentrations were added to each well. There were 3 replicate wells for each concentration, and the last column, added with DMSO, was used as a vehicle control group. The cultures were continued for 72 hours at 37° C. under 5% CO2. After 72 hours, 100 μL of detection reagent (Cell Viability Assay, Promega, G7573) was added to each well, and the cultures were uniformly mixed for 2 minutes, and incubated at room temperature for 10 minutes. The fluorescence signal value was measured with a microplate reader (PHERAstar FSX). The IC50 value of the compound on cell proliferation inhibition was calculated using Origin 9.2 software, and the inhibition rate at the highest concentration of the compound (Max inhi. %) was calculated according to formula (1). Max inhi. %=(1-T72 administration/T72 vehicle)×100 Formula (1).

[6] = system: SU-DHL-4 cells; assay: Inhibition of cell proliferation, SU-DHL-4 cells (Cell Viability Assay, 72 h); type: cell-based, human; conditions: Homo sapiens
Protocol: as §5

[7] = target: BTK protein (Mus musculus (Mouse), UniProt P35991); assay: Detection of BTK protein degradation in spleen of mice; type: in vivo; conditions: po, 72 h, female ICR mice, 3 consecutive days of intragastric administration, read-out: DD50 value of compounds on BTK protein degradation in spleen of mice
BTK protein, sequence (P35991 whole entry): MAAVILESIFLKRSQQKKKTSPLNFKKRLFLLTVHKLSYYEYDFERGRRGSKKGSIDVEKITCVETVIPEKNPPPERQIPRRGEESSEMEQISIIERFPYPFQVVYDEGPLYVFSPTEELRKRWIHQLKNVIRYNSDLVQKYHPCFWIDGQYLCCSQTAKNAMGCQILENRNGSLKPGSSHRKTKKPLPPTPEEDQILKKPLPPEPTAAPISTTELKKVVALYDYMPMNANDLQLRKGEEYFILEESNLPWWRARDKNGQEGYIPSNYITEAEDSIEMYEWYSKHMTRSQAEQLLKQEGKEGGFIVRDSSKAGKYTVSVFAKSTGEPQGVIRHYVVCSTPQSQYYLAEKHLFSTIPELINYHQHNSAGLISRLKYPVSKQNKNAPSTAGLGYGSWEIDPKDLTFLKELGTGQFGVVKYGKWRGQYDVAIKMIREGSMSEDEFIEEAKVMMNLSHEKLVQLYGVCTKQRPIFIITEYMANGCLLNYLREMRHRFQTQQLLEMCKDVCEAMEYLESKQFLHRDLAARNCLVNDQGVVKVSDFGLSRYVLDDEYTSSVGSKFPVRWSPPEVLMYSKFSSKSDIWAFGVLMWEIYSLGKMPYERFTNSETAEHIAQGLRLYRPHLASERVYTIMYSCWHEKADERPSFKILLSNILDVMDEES
Protocol: Female ICR mice, 6-8 weeks old, were purchased from BEIJING VITAL RIVER LABORATORY ANIMAL TECHNOLOGY CO., LTD, and the experiment was started after 3 days of adaptation. After 3 consecutive days of intragastric administration of different doses of the compound, the spleen of mice was taken, the spleen cells were collected, and RIPA lysis buffer (Beyotime, Cat. P0013B) was added. The cells were lysed on ice for 15 minutes, and centrifuged at 12000 rpm at 4° C. for 10 minutes. The protein sample of the supernatant was collected, and the protein was quantified by using the BCA kit (Beyotime, Cat. P0009), and then the protein was diluted to 0.25 mg/mL. The expressions of BTK (CST, Cat. 8547S) and the internal reference β-actin (CST, Cat. 3700S) were detected using a fully automated western blot quantitative analyzer (Proteinsimple). The expression level of BTK relative to the internal reference was calculated using Compass software, and the DD50 value was calculated using Origen9.2 software according to formula (4). Specifically, the BTKadministration denoted the expression level of BTK in administration groups at different doses, and the BTKvehicle denoted the expression level of BTK in the vehicle control group. BTK %=BTKadministration/BTKvehicle×100 formula (4)

[8] = Pharmacokinetic experiment in rats (i.g. vehicle DMSO/Solutol/PEG-400/SBE-β-CD); type: in vivo; conditions: Sprague-Dawley (SD), rat, plasma, po, male SD rats; for bioavailability: i.g. 20 mg/kg (DMSO/Solutol/PEG-400/SBE-β-CD) vs i.v. 5 mg/kg; for AUC(0-t): i.g. 20 mg/kg, vehicle 5% DMSO + 5% Solutol + 30% PEG-400 + 60% (20%SBE-β-CD)
Protocol: as §1
Experimental animals: Male SD rats, 200-250 g, 6-8 weeks old, 6 rats/compound. The experimental animals were purchased from CHENGDU DOSSY EXPERIMENTAL ANIMALS CO., LTD.
as §2
Sampling: Before and after the administration, 0.1 mL of blood was taken from the orbit of the rats under isoflurane anesthesia, and placed in an EDTAK2 centrifuge tube. Centrifugation was carried out at 5000 rpm at 4° C. for 10 min and the plasma was collected.
Time points for plasma collection in G1 group: 0, 5 min, 15 min, 30 min, 1 h, 2 h, 4 h, 6 h, 8 h, and 24 h.
Time points for plasma collection in G2 group: 0, 15 min, 30 min, 1 h, 2 h, 4 h, 6 h, 8 h, and 24 h.
as §3

bioavailability [1] | AUC(0-t) [1] | IC50 [3] | IC50 [5] | IC50 [6] | ED50 [7] | bioavailability [8] | AUC(0-t) [8] | Compound | IC50 [2] | IC50 [4]
– | – | – | – | – | 3.8 mg/kg | – | – | Nc1ncnc2c1c(-c1ccc(Oc3ccccc3)cc1)nn2C1CCN(C2CCN(C3CN(c4ccc5c(c4)C(=O)N(C4CCC(=O)NC4=O)C5=O)C3)CC2)CC1 (centres unmarked) [Compound 8-1, 5-(3-(4-(4-amino-3-(4-phenoxyphenyl)-1H-pyrazolo[3,4-d]pyrimidin-1-yl)-[1,4′-bipiperidin]-1′-yl)azetidin-1-yl)-2-(2,6-dioxopiperidin-3-yl)isoindoline-1,3-dione] | – | –
– | 218 ± 68 ng·h/mL | 4 nM | 29 nM | 20 nM | 1.9 mg/kg | – | – | Nc1ncnc2c1c(-c1ccc(Oc3ccccc3)cc1)nn2C1CCN(C2CCN(C3CN(c4ccc5c(c4)C(=O)N(C4CCC(=O)NC4=O)C5=O)C3)CC2F)CC1 (stereo not drawn) [Compound 18-1, cis-5-(3-(4-(4-amino-3-(4-phenoxyphenyl)-1H-pyrazolo[3,4-d]pyrimidin-1-yl)-3′-fluoro-[1,4′-bipiperidin]-1′-yl)azetidin-1-yl)-2-(2,6-dioxopiperidin-3-yl)isoindoline-1,3-dione] | 8 nM | 18 nM
– | 1260 ± 117 ng·h/mL | 23 nM | – | 394 nM | – | – | – | Nc1ncnc2c1c(-c1ccc(Oc3ccccc3)cc1)nn2C1CCN(C2CN(C3CN(c4ccc5c(c4)C(=O)N(C4CCC(=O)NC4=O)C5=O)C3)C2)CC1F (stereo not drawn) [Compound 19-1, trans-5-(3-(4-(4-amino-3-(4-phenoxyphenyl)-1H-pyrazolo[3,4-d]pyrimidin-1-yl)-3-fluoropiperidin-1-yl)-[1,3′-biazetidin]-1′-yl)-2-(2,6-dioxopiperidin-3-yl)isoindoline-1,3-dione] | 14 nM | –

Continued, compound first:

Compound | bioavailability [1] | AUC(0-t) [1] | IC50 [3] | IC50 [5] | IC50 [6] | ED50 [7] | bioavailability [8] | AUC(0-t) [8] | IC50 [2] | IC50 [4]
Nc1ncnc2c1c(-c1ccc(Oc3ccccc3)cc1)nn2C1CCN(C2CCN(C3CN(c4ccc5c(c4)C(=O)N(C4CCC(=O)NC4=O)C5=O)C3)CC2)CC1 (centres unmarked) [Compound 8, 5-(3-(4-(4-amino-3-(4-phenoxyphenyl)-1H-pyrazolo[3,4-d]pyrimidin-1-yl)-[1,4′-bipiperidin]-1′-yl)azetidin-1-yl)-2-(2,6-dioxopiperidin-3-yl)isoindoline-1,3-dione tritrifluoroacetate] | 11.8 ± 4.4% | 634 ± 238 ng·h/mL | 3 nM | 399 nM | 255 nM | – | – | – | 22 nM | 309 nM
Nc1ncnc2c1c(-c1ccc(Oc3ccccc3)cc1)nn2C1CCN(C2CN(C3CN(c4ccc5c(c4)C(=O)N([C@@H]4CCC(=O)NC4=O)C5=O)C3)C2)CC1 [Compound 17-a, 5-[3-[3-[4-[4-amino-3-(4-phenoxyphenyl)pyrazolo[3,4-d]pyrimidin-1-yl]-1-piperidyl]azetidin-1-yl]azetidin-1-yl]-2-[(3R)-2,6-dioxo-3-piperidyl]isoindoline-1,3-dione] | – | – | – | 524 nM | 481 nM | 19.8 mg/kg | – | – | – | 8 nM
Nc1ncnc2c1c(-c1ccc(Oc3ccccc3)cc1)nn2C1CCN(C2CN(C3CN(c4ccc5c(c4)C(=O)N([C@H]4CCC(=O)NC4=O)C5=O)C3)C2)CC1 [Compound 17-b, 5-[3-[3-[4-[4-amino-3-(4-phenoxyphenyl)pyrazolo[3,4-d]pyrimidin-1-yl]-1-piperidyl]azetidin-1-yl]azetidin-1-yl]-2-[(3S)-2,6-dioxo-3-piperidyl]isoindoline-1,3-dione] | – | – | – | 662 nM | 460 nM | 2.2 mg/kg | – | – | – | 7.2 nM
Nc1ncnc2c1c(-c1ccc(Oc3ccccc3)cc1)nn2[C@H]1CCN(C2CN(C3CN(c4ccc5c(c4)C(=O)N(C4CCC(=O)NC4=O)C5=O)C3)C2)C[C@H]1F (stereo partly drawn) [Compound 41, 5-(3-((3R,4S)-4-(4-amino-3-(4-phenoxyphenyl)-1H-pyrazolo[3,4-d]pyrimidin-1-yl)-3-fluoropiperidin-1-yl)-[1,3′-biazetidin]-1′-yl)-2-(2,6-dioxopiperidin-3-yl)isoindoline-1,3-dione] | – | – | – | 670 nM | 329 nM | – | 10.8 ± 1.5% | 7910 ± 1100 ng·h/mL | – | 10.3 nM
Nc1ncnc2c1c(-c1ccc(Oc3ccccc3)cc1)nn2[C@H]1CCN(C2CN(C3CN(c4ccc5c(c4)C(=O)N(C4CCC(=O)NC4=O)C5=O)C3)C2)C[C@@H]1F (stereo partly drawn) [Compound 43, 5-[3-[3-[(3S,4S)-4-[4-amino-3-(4-phenoxyphenyl)pyrazolo[3,4-d]pyrimidin-1-yl]-3-fluoro-1-piperidyl]azetidin-1-yl]azetidin-1-yl]-2-(2,6-dioxo-3-piperidyl)isoindoline-1,3-dione] | – | – | – | 407 nM | 330 nM | – | 11 ± 2.2% | 4500 ± 886 ng·h/mL | – | 10 nM
Nc1ncnc2c1c(-c1ccc(Oc3ccccc3)cc1)nn2[C@@H]1CCCN(C(=O)c2cn(CCOCCOCCOCCNc3cccc4c3C(=O)N(C3CCC(=O)NC3=O)C4=O)nn2)C1 (some centres unmarked) [Compound P13I, reference compound] | 0% | – | 29 nM | 1640 nM | 1180 nM | – | 0% | – | 104 nM | 844 nM
